Experimental data taken from ChEMBL document CHEMBL3232798, “Synthesis and antimycobacterial activities of some new thiazolylhydrazone derivatives” (Bioorg Med Chem Lett, 2014).
In brackets after ≈: the same amount, converted by molar mass.

Columns and labels:
[1] = system: Mycobacterium tuberculosis; assay: Antimycobacterial activity against Mycobacterium tuberculosis H37Rv by microplate alamar blue assay; assay type: functional
[2] = Cytotoxicity against human THP1 cells at 50 ug/ml by MTT assay; assay type: cell-based; details: THP-1 cells, read-out: INH

SMILES | MIC [1] [µM] | cytotoxicity at 50 ug/ml [2] [%]
CO[C@H]1/C=C/O[C@@]2(C)Oc3c(C)c(O)c4c(O)c(c(/C=N/N5CCN(C)CC5)c(O)c4c3C2=O)NC(=O)/C(C)=C\C=C\[C@H](C)[C@H](O)[C@@H](C)[C@@H](O)[C@@H](C)[C@H](OC(C)=O)[C@@H]1C [RIFAMPIN] | 0.12 (≈ 0.0988 µg/mL) | –
Brc1ccc(-c2csc(N/N=C/c3ccc(-n4ccnc4)cc3)n2)cc1 | 59.1 (≈ 25.1 µg/mL) | 36.8
NNC(=O)c1ccncc1 [ISONIAZID] | 0.36 (≈ 0.0494 µg/mL) | –
O=[N+]([O-])c1ccc(-c2csc(N/N=C/c3ccc(-n4ccnc4)cc3)n2)cc1 | 1.03 (≈ 0.402 µg/mL) | 16.4
C(=N\Nc1nc(-c2ccccc2)cs1)/c1ccc(-n2cncn2)cc1 | 72.2 (≈ 25 µg/mL) | 28.4
CC[C@@H](CO)NCCN[C@@H](CC)CO [ETHAMBUTOL] | 7.65 (≈ 1.56 µg/mL) | –
Fc1ccc(-c2csc(N/N=C/c3ccc(-n4ccnc4)cc3)n2)cc1 | 4.3 (≈ 1.56 µg/mL) | 18.7
Clc1ccc(-c2csc(N/N=C/c3ccc(-n4cncn4)cc3)n2)c(Cl)c1 | 3.76 (≈ 1.56 µg/mL) | 8.9
COc1ccc(-c2csc(N/N=C/c3ccc(-n4ccnc4)cc3)n2)cc1 | 4.16 (≈ 1.56 µg/mL) | 26.8
COc1ccc(-c2csc(N/N=C/c3ccc(-n4cncn4)cc3)n2)cc1 | 16.6 (≈ 6.26 µg/mL) | 23
Cc1ccc(-c2csc(N/N=C/c3ccc(-n4ccnc4)cc3)n2)cc1 | 33 (≈ 11.9 µg/mL) | 36
Fc1ccc(-c2csc(N/N=C/c3ccc(-n4cncn4)cc3)n2)cc1 | 4.29 (≈ 1.56 µg/mL) | 35.9
C(=N\Nc1nc(-c2ccccc2)cs1)/c1ccc(-n2ccnc2)cc1 | 72.5 (≈ 25 µg/mL) | 21.8
Brc1ccc(-c2csc(N/N=C/c3ccc(-n4cncn4)cc3)n2)cc1 | 29.5 (≈ 12.5 µg/mL) | 32.6
Clc1ccc(-c2csc(N/N=C/c3ccc(-n4cncn4)cc3)n2)cc1 | 8.2 (≈ 3.12 µg/mL) | 28.4
O=[N+]([O-])c1ccc(-c2csc(N/N=C/c3ccc(-n4cncn4)cc3)n2)cc1 | 3.99 (≈ 1.56 µg/mL) | 12.9
Clc1ccc(-c2csc(N/N=C/c3ccc(-n4ccnc4)cc3)n2)c(Cl)c1 | 15.1 (≈ 6.26 µg/mL) | 28.8
Cc1ccc(-c2csc(N/N=C/c3ccc(-n4cncn4)cc3)n2)cc1 | 4.33 (≈ 1.56 µg/mL) | 13.6
Clc1ccc(-c2csc(N/N=C/c3ccc(-n4ccnc4)cc3)n2)cc1 | 8.22 (≈ 3.12 µg/mL) | 32.1
